Experimental findings from patent US20260053932A1, “COMPOUNDS AND METHODS FOR THE TARGETED DEGRADATION OF ANDROGEN RECEPTOR AND ASSOCIATED METHODS OF USE” (Arvinas Operations, Inc., priority 2020, published 2026) are described below.

The subject of the experiment is androgen receptor (AR) in LNCaP and/or VCaP cells. The experiment can be described thus: Androgen Receptor ELISA assay (AR degradation). Format: cell-based. The settings on record: degradation of AR ELISA in LNCaP and/or VCaP cells; Table 2C; read-out: DC50 Code*. Put shortly:
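VCaP cells grown ≥3 days, then treated 5 h with compound in media containing 1 nM R1881 (10× stock). Cells lysed and AR quantified by sandwich ELISA (mouse AR detection Ab, HRP anti-mouse, TMB). DC50 and Dmax derived from AR degradation.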
(An ELISA detects its analyte on a solid surface through an enzyme-linked reagent.)

Bounds are passed on as bounds.

On to `CC1(C)[C@H](NC(=O)c2ccc(N3CCC(CCN4CC5CN(c6ccc7c(c6)C(=O)N(C6CCC(=O)NC6=O)C7=O)CC5C4)C3)cc2)C(C)(C)[C@H]1Oc1ccc(C#N)c(Cl)c1` (some centres unmarked) [compound 111, N-((1r,3r)-3-(3-chloro-4-cyanophenoxy)-2,2,4,4-tetramethylcyclobutyl)-4-(3-(2-(5-(2-(2,6-dioxopiperidin-3-yl)-1,3-dioxoisoindolin-5-yl)hexahydropyrrolo[3,4-c]pyrrol-2(1H)-yl)ethyl)pyrrolidin-1-yl)benzamide], for which the DC50 was under 1 nM.
Regarding `Cc1cc(O[C@H]2C(C)(C)[C@H](NC(=O)c3cnc(N4CCC(CN(C(C)C)[C@H]5C[C@H](Oc6ccc7c(c6)C(=O)N(C6CCC(=O)NC6=O)C7=O)C5)CC4)cn3)C2(C)C)cc(C)c1C#N` (some centres unmarked) [compound 112, N-((1r,3r)-3-(4-cyano-3,5-dimethylphenoxy)-2,2,4,4-tetramethylcyclobutyl)-5-(4-((((1r,3r)-3-((2-(2,6-dioxopiperidin-3-yl)-1,3-dioxoisoindolin-5-yl)oxy)cyclobutyl) (isopropyl)amino)methyl)piperidin-1-yl)pyrazine-2-carboxamide], the DC50 is under 1 nM.
To `CC(C)N(CC1CCN(c2cnc(C(=O)N[C@H]3C(C)(C)[C@H](Oc4ccc(C#N)c(Cl)c4)C3(C)C)cn2)CC1)[C@H]1C[C@H](Oc2ccc3c(c2)CN(C2CCC(=O)NC2=O)C3=O)C1` (some centres unmarked) [compound 113, N-((1r,3r)-3-(3-chloro-4-cyanophenoxy)-2,2,4,4-tetramethylcyclobutyl)-5-(4-((((1r,3r)-3-((2-(2,6-dioxopiperidin-3-yl)-1-oxoisoindolin-5-yl)oxy)cyclobutyl) (isopropyl)amino)methyl)piperidin-1-yl)pyrazine-2-carboxamide] belongs under 1 nM.
Take `CC1(C)[C@H](NC(=O)c2ccc(N3CCC(CN4CC5CN(c6ccc7c(c6)C(=O)N(C6CCC(=O)NC6=O)C7=O)CC5C4)CC3)cc2)C(C)(C)[C@H]1Oc1ccc(C#N)c(Cl)c1` (some centres unmarked) [compound 114, N-((1r,3r)-3-(3-chloro-4-cyanophenoxy)-2,2,4,4-tetramethylcyclobutyl)-4-(4-((5-(2-(2,6-dioxopiperidin-3-yl)-1,3-dioxoisoindolin-5-yl)hexahydropyrrolo[3,4-c]pyrrol-2(1H)-yl)methyl)piperidin-1-yl)benzamide]: the DC50 was under 1 nM.
With `Cc1cc(O[C@H]2C(C)(C)[C@H](NC(=O)c3cnc(N4CCC(CCN5CC(Oc6ccc7c(c6)C(=O)N(C6CCC(=O)NC6=O)C7=O)C5)CC4)cn3)C2(C)C)cc(C)c1C#N` (some centres unmarked) [compound 115, N-((1r,3r)-3-(4-cyano-3,5-dimethylphenoxy)-2,2,4,4-tetramethylcyclobutyl)-5-(4-(2-(3-((2-(2,6-dioxopiperidin-3-yl)-1,3-dioxoisoindolin-5-yl)oxy)azetidin-1-yl)ethyl)piperidin-1-yl)pyrazine-2-carboxamide], the DC50 is under 1 nM.
The same measure for `COCCN(CC1CCN(c2cnc(C(=O)N[C@H]3C(C)(C)[C@H](Oc4ccc(C#N)c(OC)c4)C3(C)C)cn2)CC1)[C@H]1C[C@H](Oc2ccc3c(c2)C(=O)N(C2CCC(=O)NC2=O)C3=O)C1` (some centres unmarked) [compound 116, N-((1r,3r)-3-(4-cyano-3-methoxyphenoxy)-2,2,4,4-tetramethylcyclobutyl)-5-(4-((((1r,3r)-3-((2-(2,6-dioxopiperidin-3-yl)-1,3-dioxoisoindolin-5-yl)oxy)cyclobutyl)(2-methoxyethyl)amino)methyl)piperidin-1-yl)pyrazine-2-carboxamide]: under 1 nM.
Turning to `Cc1cc(O[C@H]2C(C)(C)[C@H](NC(=O)c3cnc(N4CC(CN5CCC(Oc6ccc7c(c6)C(=O)N(C6CCC(=O)NC6=O)C7=O)CC5)C4)cn3)C2(C)C)cc(C)c1C#N` (some centres unmarked) [compound 117, N-((1r,3r)-3-(4-cyano-3,5-dimethylphenoxy)-2,2,4,4-tetramethylcyclobutyl)-5-(3-((4-((2-(2,6-dioxopiperidin-3-yl)-1,3-dioxoisoindolin-5-yl)oxy)piperidin-1-yl)methyl)azetidin-1-yl)pyrazine-2-carboxamide], the DC50 was under 1 nM.
As for `Cc1cc(O[C@H]2C(C)(C)[C@H](NC(=O)c3cnc(N4CC(CN[C@H]5C[C@H](Oc6ccc7c(c6)C(=O)N(C6CCC(=O)NC6=O)C7=O)C5)C4)cn3)C2(C)C)cc(C)c1C#N` (some centres unmarked) [compound 118, N-((1r,3r)-3-(4-cyano-3,5-dimethylphenoxy)-2,2,4,4-tetramethylcyclobutyl)-5-(3-((((1r,3r)-3-((2-(2,6-dioxopiperidin-3-yl)-1,3-dioxoisoindolin-5-yl)oxy)cyclobutyl)amino)methyl)azetidin-1-yl)pyrazine-2-carboxamide], the half-maximal degradation concentration (DC50) was under 1 nM.
On to `COCCN(CC1CCN(c2cnc(C(=O)N[C@H]3C(C)(C)[C@H](Oc4cc(C)c(C#N)c(C)c4)C3(C)C)cn2)CC1)[C@H]1C[C@H](Oc2ccc3c(c2)C(=O)N(C2CCC(=O)NC2=O)C3=O)C1` (some centres unmarked) [compound 119, N-((1r,3r)-3-(4-cyano-3,5-dimethylphenoxy)-2,2,4,4-tetramethylcyclobutyl)-5-(4-((((1r,3r)-3-((2-(2,6-dioxopiperidin-3-yl)-1,3-dioxoisoindolin-5-yl)oxy)cyclobutyl)(2-methoxyethyl)amino)methyl)piperidin-1-yl)pyrazine-2-carboxamide], for which the DC50 was under 1 nM.
Regarding `CCc1c(O[C@H]2C[C@H](N(CC3CCN(c4cnc(C(=O)N[C@H]5C(C)(C)[C@H](Oc6ccc(C#N)c(Cl)c6)C5(C)C)cn4)CC3)C(C)C)C2)ccc2c1CN(C1CCC(=O)NC1=O)C2=O` (some centres unmarked) [compound 120, N-((1r,3r)-3-(3-chloro-4-cyanophenoxy)-2,2,4,4-tetramethylcyclobutyl)-5-(4-((((1r,3r)-3-((2-(2,6-dioxopiperidin-3-yl)-4-ethyl-1-oxoisoindolin-5-yl)oxy)cyclobutyl) (isopropyl)amino)methyl)piperidin-1-yl)pyrazine-2-carboxamide], the 50% degradation concentration (DC50) was under 1 nM.
Take `COCCN(CC1CCN(c2ccc(C(=O)N[C@H]3C(C)(C)[C@H](Oc4cc(C)c(C#N)c(C)c4)C3(C)C)nn2)CC1)[C@H]1C[C@H](Oc2ccc3c(c2)C(=O)N(C2CCC(=O)NC2=O)C3=O)C1` (some centres unmarked) [compound 121, N-((1r,3r)-3-(4-cyano-3,5-dimethylphenoxy)-2,2,4,4-tetramethylcyclobutyl)-6-(4-((((1r,3r)-3-((2-(2,6-dioxopiperidin-3-yl)-1,3-dioxoisoindolin-5-yl)oxy)cyclobutyl)(2-methoxyethyl)amino)methyl)piperidin-1-yl)pyridazine-3-carboxamide]: the 50% degradation concentration (DC50) is under 1 nM.
For `COc1cc(O[C@H]2C(C)(C)[C@H](NC(=O)c3cnc(N4CC5(CC(CN(C(C)C)[C@H]6C[C@H](Oc7ccc8c(c7)C(=O)N(C7CCC(=O)NC7=O)C8=O)C6)C5)C4)cn3)C2(C)C)ccc1C#N` (some centres unmarked) [compound 122, N-((1r,3r)-3-(4-cyano-3-methoxyphenoxy)-2,2,4,4-tetramethylcyclobutyl)-5-(6-((((1r,3r)-3-((2-(2,6-dioxopiperidin-3-yl)-1,3-dioxoisoindolin-5-yl)oxy)cyclobutyl) (isopropyl)amino)methyl)-2-azaspiro[3.3]heptan-2-yl)pyrazine-2-carboxamide], the DC50 was under 1 nM.
As to `CC(C)N(CC1CCN(c2cnc(C(=O)N[C@H]3C(C)(C)[C@H](Oc4ccc(C#N)c(Cl)c4)C3(C)C)cn2)CC1)[C@H]1C[C@H](Oc2ccc3c(c2)C(=O)N(C2CCC(=O)NC2=O)C3)C1` (some centres unmarked) [compound 123, N-((1r,3r)-3-(3-chloro-4-cyanophenoxy)-2,2,4,4-tetramethylcyclobutyl)-5-(4-((((1r,3r)-3-((2-(2,6-dioxopiperidin-3-yl)-3-oxoisoindolin-5-yl)oxy)cyclobutyl) (isopropyl)amino)methyl)piperidin-1-yl)pyrazine-2-carboxamide], the half-maximal degradation concentration (DC50) was under 1 nM.
On to `COc1cc(O[C@H]2C[C@H](N(CC3CCN(c4cnc(C(=O)N[C@H]5C(C)(C)[C@H](Oc6ccc(C#N)c(Cl)c6)C5(C)C)cn4)CC3)C(C)C)C2)cc2c1C(=O)N(C1CCC(=O)NC1=O)C2=O` (some centres unmarked) [compound 124, N-((1r,3r)-3-(3-chloro-4-cyanophenoxy)-2,2,4,4-tetramethylcyclobutyl)-5-(4-((((1r,3r)-3-((2-(2,6-dioxopiperidin-3-yl)-7-methoxy-1,3-dioxoisoindolin-5-yl)oxy)cyclobutyl) (isopropyl)amino)methyl)piperidin-1-yl)pyrazine-2-carboxamide], for which the DC50 is under 1 nM.
To `CC1(C)[C@H](NC(=O)c2ccc(N3CCN([C@H]4CC[C@H](Oc5ccc6c(c5)C(=O)N(C5CCC(=O)NC5=O)C6=O)C4)CC3)cc2)C(C)(C)[C@H]1Oc1ccc(C#N)c(Cl)c1` (stereo partly drawn) [compound 125, N-((1r,3S)-3-(3-chloro-4-cyanophenoxy)-2,2,4,4-tetramethylcyclobutyl)-4-(4-((1S,3S)-3-((2-(2,6-dioxopiperidin-3-yl)-1,3-dioxoisoindolin-5-yl)oxy)cyclopentyl)piperazin-1-yl)benzamide] belongs under 1 nM; to `COCCN(CC1CCN(c2ccc(C(=O)N[C@H]3C(C)(C)[C@H](Oc4ccc(C#N)c(Cl)c4)C3(C)C)nn2)CC1)[C@H]1C[C@H](Oc2ccc3c(c2)C(=O)N(C2CCC(=O)NC2=O)C3=O)C1` (some centres unmarked) [compound 127, N-((1r,3r)-3-(3-chloro-4-cyanophenoxy)-2,2,4,4-tetramethylcyclobutyl)-6-(4-((((1r,3r)-3-((2-(2,6-dioxopiperidin-3-yl)-1,3-dioxoisoindolin-5-yl)oxy)cyclobutyl)(2-methoxyethyl)amino)methyl)piperidin-1-yl)pyridazine-3-carboxamide], under 1 nM; to `Cc1cc(O[C@H]2C(C)(C)[C@H](NC(=O)c3ccc(N4CCC(CN(C(C)C)[C@H]5C[C@H](Oc6ccc7c(c6)C(=O)N(C6CCC(=O)NC6=O)C7=O)C5)CC4)cn3)C2(C)C)cc(C)c1C#N` (some centres unmarked) [compound 128, N-((1r,3r)-3-(4-cyano-3,5-dimethylphenoxy)-2,2,4,4-tetramethylcyclobutyl)-5-(4-((((1r,3r)-3-((2-(2,6-dioxopiperidin-3-yl)-1,3-dioxoisoindolin-5-yl)oxy)cyclobutyl) (isopropyl)amino)methyl)piperidin-1-yl)picolinamide], 1 to 10 nM.

What is called DC50 is the concentration giving 50% degradation.
